# Results taken from patent publication US20160244437A1, “SUBSTITUTED PHENYLALANINE DERIVATIVES” (BAYER PHARMA AKTIENGESELLSCHAFT, priority 2013, published 2016).
# pIC50: −log10 of the molar value. Counter-ions that a name gives are not always drawn.
# Experiments:
# human factor XIa = target: T1, human factor XIa (Homo sapiens, UniProt P03951); test: Measurement of FXIa inhibition (fluorogenic peptide substrate Boc-Glu(OBzl)-Ala-Arg-AMC); assay type: biochemical; details: factor XIa from Kordia 0.45 nM, 15 min pre-incubation, 30 min at 22° C., fluorescence
# T1 construct: purchased Kordia
# T1 sequence (P03951 388-625 limits assumed): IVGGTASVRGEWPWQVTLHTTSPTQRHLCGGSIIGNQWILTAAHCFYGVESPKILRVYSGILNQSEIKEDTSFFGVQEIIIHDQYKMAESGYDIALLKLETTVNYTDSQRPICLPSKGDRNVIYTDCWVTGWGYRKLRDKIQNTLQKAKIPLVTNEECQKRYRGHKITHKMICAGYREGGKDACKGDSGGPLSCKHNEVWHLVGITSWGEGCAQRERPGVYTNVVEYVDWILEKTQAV
# T1 sequence (P03951 19-387 partner limits assumed): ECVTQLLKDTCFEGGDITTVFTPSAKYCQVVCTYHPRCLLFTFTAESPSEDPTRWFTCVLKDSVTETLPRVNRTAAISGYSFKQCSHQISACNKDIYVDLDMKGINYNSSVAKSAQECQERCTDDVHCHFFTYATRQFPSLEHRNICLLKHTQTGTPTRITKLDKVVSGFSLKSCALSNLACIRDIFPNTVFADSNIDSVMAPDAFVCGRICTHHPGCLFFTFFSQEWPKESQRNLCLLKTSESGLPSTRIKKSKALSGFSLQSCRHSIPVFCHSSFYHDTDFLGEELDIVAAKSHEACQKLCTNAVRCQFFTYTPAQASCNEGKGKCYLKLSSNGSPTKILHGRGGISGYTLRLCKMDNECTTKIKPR
# human and animal plasma = test: Determination of anticoagulatory activity: activated partial thromboplastin time (aPTT) in plasma; details: concentration of test substance which brings about a 1.5-fold extension of the aPTT; plasma in vitro, C.K. Prest kit
# Outline: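 Citrated plasma (human, mouse, rat, rabbit, pig, dog) incubated with varying compound concentrations and cephalin/kaolin PTT reagent for 3 minutes at 37° C.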
pIC50 (human factor XIa),Compound,aPTT (human and animal plasma) [µmol/L]
8.24,"CN(C)CCCOc1ccc(-c2cccc(C[C@H](NC(=O)[C@H]3CC[C@H](CN)CC3)C(=O)Nc3ccc(-c4nnc(Cl)[nH]4)cc3)c2)cn1 [Example 90, N-alpha-{[trans-4-(Aminomethyl)cyclohexyl]carbonyl}-N-[4-(3-chloro-4H-1,2,4-triazol-5-yl)phenyl]-3-{6-[3-(dimethylamino)propoxy]pyridin-3-yl}-L-phenylalaninamide hydrochloride]",0.08
8.46,"CN1CCN(c2ncc(-c3cccc(C[C@H](NC(=O)[C@H]4CC[C@H](CN)CC4)C(=O)Nc4ccc(-c5nnc(Cl)[nH]5)cc4)c3)cn2)CC1 [Example 91, N-alpha-{[trans-4-(Aminomethyl)cyclohexyl]carbonyl}-N-[4-(3-chloro-4H-1,2,4-triazol-5-yl)phenyl]-3-[2-(4-methylpiperazin-1-yl)pyrimidin-5-yl]-L-phenylalaninamide hydrochloride]",0.06
8.44,"NC[C@H]1CC[C@H](C(=O)N[C@@H](Cc2cccc(-c3cnc(N4CCOCC4)nc3)c2)C(=O)Nc2ccc(-c3nnc(Cl)[nH]3)cc2)CC1 [Example 92, N-alpha-{[trans-4-(Aminomethyl)cyclohexyl]carbonyl}-N-[4-(3-chloro-4H-1,2,4-triazol-5-yl)phenyl]-3-[2-(morpholin-4-yl)pyrimidin-5-yl]-L-phenylalaninamide hydrochloride]",0.37
8.28,"CN(C)c1ncc(-c2cccc(C[C@H](NC(=O)[C@H]3CC[C@H](CN)CC3)C(=O)Nc3ccc(-c4nnc(Cl)[nH]4)cc3)c2)cn1 [Example 93, N-alpha-{[trans-4-(Aminomethyl)cyclohexyl]carbonyl}-N-[4-(3-chloro-4H-1,2,4-triazol-5-yl)phenyl]-3-[2-(dimethylamino)pyrimidin-5-yl]-L-phenylalaninamide hydrochloride]",0.48
8.27,"CC(=O)Nc1ncc(-c2cccc(C[C@H](NC(=O)[C@H]3CC[C@H](CN)CC3)C(=O)Nc3ccc(-c4nnn[nH]4)cc3)c2)c(C)n1 [Example 94, 3-[2-(Acetylamino)-4-methylpyrimidin-5-yl]-N-alpha-{[trans-4-(aminomethyl)cyclohexyl]-carbonyl}-N-[4-(1H-tetrazol-5-yl)phenyl]-L-phenylalaninamide hydrochloride]",0.23
8.27,"Cc1nc(N)ncc1-c1cccc(C[C@H](NC(=O)[C@H]2CC[C@H](CN)CC2)C(=O)Nc2ccc(-c3nnn[nH]3)cc2)c1 [Example 95, N-alpha-{[trans-4-(Aminomethyl)cyclohexyl]carbonyl}-3-(2-amino-4-methylpyrimidin-5-yl)-N-[4-(1H-tetrazol-5-yl)phenyl]-L-phenylalaninamide hydrochloride]",0.24
8.48,"NC[C@H]1CC[C@H](C(=O)N[C@@H](Cc2cccc(-c3cnc(N4CCOCC4)nc3)c2)C(=O)Nc2ccc(-c3n[nH]c(C(F)(F)C(F)(F)C(=O)O)n3)cc2)CC1 [Example 96, 3-(3-{4-[(N-{[trans-4-(Aminomethyl)cyclohexyl]carbonyl}-3-[2-(morpholin-4-yl)pyrimidin-5-yl]-L-phenylalanyl)amino]phenyl}-1H-1,2,4-triazol-5-yl)-2,2,3,3-tetrafluoropropanoic acid hydrochloride]",0.19
8.68,"Cc1cc(N)ccc1-c1cccc(C[C@H](NC(=O)[C@H]2CC[C@H](CN)CC2)C(=O)Nc2ccc(-c3nnn[nH]3)cc2)c1 [Example 97, trans-4-(Aminomethyl)-N-[(2S)-3-(4′-amino-2′-methylbiphenyl-3-yl)-1-oxo-1-{[4-(1H-tetrazol-5-yl)phenyl]amino}propan-2-yl]cyclohexanecarboxamide hydrochloride]",0.12
8.27,"Cc1nc(O)ccc1-c1cccc(C[C@H](NC(=O)[C@H]2CC[C@H](CN)CC2)C(=O)Nc2ccc(-c3nnn[nH]3)cc2)c1 [Example 98, N-alpha-{[trans-4-(Aminomethyl)cyclohexyl]carbonyl)}-3-(6-hydroxy-2-methylpyridin-3-yl)-N-[4-(1H-tetrazol-5-yl)phenyl]-L-phenylalaninamide hydrochloride]",0.2
7.23,"CN(C)CCCOc1ccc(-c2cccc(C[C@H](NC(=O)[C@H]3CC[C@H](CN)CC3)C(=O)Nc3ccc4[nH]c(=O)[nH]c4c3)c2)cn1 [Example 100, N-alpha-{[trans-4-(Aminomethyl)cyclohexyl]carbonyl}-3-{6-[3-(dimethylamino)propoxy]pyridin-3-yl}-N-(2-oxo-2,3-dihydro-1H-benzimidazol-5-yl)-L-phenylalaninamide hydrochloride]",0.34
7.85,"CN(C)CCCOc1ccc(-c2cccc(C[C@H](NC(=O)[C@H]3CC[C@H](CN)CC3)C(=O)Nc3ccc(-c4nnc(C(F)(F)F)[nH]4)cc3)c2)cn1 [Example 101, N-alpha-{[trans-4-(Aminomethyl)cyclohexyl]carbonyl}-3-{6-[3-(dimethylamino)propoxy]pyridin-3-yl}-N-{4-[3-(trifluoromethyl)-4H-1,2,4-triazol-5-yl]phenyl}-L-phenylalaninamide hydrochloride]",0.43
8.66,"Cc1cc(N2CCOCC2)ncc1-c1cccc(C[C@H](NC(=O)[C@H]2CC[C@H](CN)CC2)C(=O)Nc2ccc(-c3nnc(Cl)[nH]3)cc2)c1 [Example 102, N-alpha-{[trans-4-(Aminomethyl)cyclohexyl]carbonyl}-N-[4-(3-chloro-4H-1,2,4-triazol-5-yl)phenyl]-3-[4-methyl-6-(morpholin-4-yl)pyridin-3-yl]-L-phenylalaninamide hydrochloride]",0.43
8.48,"Cc1ccc(N)cc1-c1cccc(C[C@H](NC(=O)[C@H]2CC[C@H](CN)CC2)C(=O)Nc2ccc(-c3nnn[nH]3)cc2)c1 [Example 103, trans-4-(Aminomethyl)-N-[(2S)-3-(5′-amino-2′-methylbiphenyl-3-yl)-1-oxo-1-{[4-(1H-tetrazol-5-yl)phenyl]amino}propan-2-yl]cyclohexanecarboxamide hydrochloride]",0.1
7.89,"COCc1nnc(-c2ccc(NC(=O)[C@H](Cc3cccc(-c4cccc5ncccc45)c3)NC(=O)[C@H]3CC[C@H](CN)CC3)cc2)[nH]1 [Example 105, N-alpha-{[trans-4-(Aminomethyl)cyclohexyl]carbonyl}-3-quinolin-5-yl-N-{4-[5-(methoxymethyl)-4H-1,2,4-triazol-3-yl]phenyl}-L-phenylalaninamide hydrochloride]",0.14

Compound,pIC50 (human factor XIa),aPTT (human and animal plasma) [µmol/L]
"Cc1ccc2[nH]ncc2c1-c1cccc(C[C@H](NC(=O)[C@H]2CC[C@H](CN)CC2)C(=O)Nc2ccc(-c3noc(=O)[nH]3)cc2)c1 [Example 87, N-alpha-{[trans-4-(Aminomethyl)cyclohexyl]carbonyl}-3-(5-methyl-1H-indazol-4-yl)-N-[4-(5-oxo-4,5-dihydro-1,2,4-oxadiazol-3-yl)phenyl]-L-phenylalaninamide hydrochloride]",8.46,0.49
